Source: PubChem BioAssay AID488844 (Broad Institute, 2010)
Where “and” joins values, the source holds several entries; their conditions need not be identical. Equal values may be shown once. Calls of active or inactive are those of the source.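 How the source made its calls: active means compounds raising protection with a fitted AC50 no more than tenfold their highest valid tested dose; inconclusive means flat curve with partial protection, or unreliable curve fit; inactive means the rest.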

What was measured:
[1] = protection of INS-1E cells from cytokine death, dose response, ATP luminescence, dry powder (AID 488844); details: INS-1E cytokine-induced death rescue, ATP luminescence, 48 h
[2] = tested on: INS-1E cytokine-induced death rescue, ATP luminescence, 48 h; assay: as above

| Structure (SMILES) | protection from cytokine death ([1]; at 26 µM (top of the series)) | also measured |
| --- | --- | --- |
| COc1ccc(S(=O)(=O)N(C)C[C@@H]2Oc3c(NC(=O)c4cnccn4)cccc3C(=O)N([C@@H](C)CO)C[C@H]2C)cc1 | 6.69% (inactive) |  |
| C[C@@H]1CN([C@@H](C)CO)C(=O)c2cccc(NC(=O)Nc3cccc4ccccc34)c2O[C@H]1CN(C)S(C)(=O)=O | -4.98% (inactive) |  |
| C[C@@H]1CN([C@@H](C)CO)C(=O)c2cccc(NC(=O)Nc3cccc4ccccc34)c2O[C@H]1CN(C)S(=O)(=O)c1cccc(F)c1 | -13.6% (inactive) |  |
| COc1ccc(S(=O)(=O)N(C)C[C@@H]2Oc3c(NC(=O)Nc4ccccc4)cccc3C(=O)N([C@@H](C)CO)C[C@H]2C)cc1 |  | AC50 [2]: > 26 µM (inactive) |
| COc1ccc(S(=O)(=O)N(C)C[C@@H]2Oc3c(NC(=O)C4CCOCC4)cccc3C(=O)N([C@@H](C)CO)C[C@H]2C)cc1 |  | protection from cytokine death ([1]; at 23.5 µM (top of the series)): 6.47% (inactive) |
| COc1ccc(S(=O)(=O)Nc2cccc3c2O[C@@H](CN(C)S(=O)(=O)c2ccc(OC)cc2)[C@H](C)CN([C@@H](C)CO)C3=O)cc1 | -0.665% (inactive) |  |
| C[C@@H]1CN([C@@H](C)CO)C(=O)c2cccc(NC(=O)Nc3cccc4ccccc34)c2O[C@H]1CN(C)S(=O)(=O)c1ccc2c(n1)N(C)CCO2 | 22.7% (inactive) |  |
| COc1ccc(S(=O)(=O)N(C)C[C@@H]2Oc3c(NC(=O)c4ccncc4)cccc3C(=O)N([C@@H](C)CO)C[C@H]2C)cc1 | 0.628% (inactive) |  |
| COc1ccc(S(=O)(=O)N(C)C[C@@H]2Oc3c(NC(=O)Nc4ccc(C(F)(F)F)cc4)cccc3C(=O)N([C@@H](C)CO)C[C@H]2C)cc1 | 7.51% (inactive) |  |
| COc1ccc(S(=O)(=O)N(C)C[C@@H]2Oc3c(NC(=O)c4nc5ccccc5s4)cccc3C(=O)N([C@@H](C)CO)C[C@H]2C)cc1 | -19.4% (inactive) |  |
| COc1ccc(S(=O)(=O)N(C)C[C@@H]2Oc3c(NC(=O)NC(C)C)cccc3C(=O)N([C@@H](C)CO)C[C@H]2C)cc1 | -1.33% (inactive) |  |
| C[C@@H]1CN([C@@H](C)CO)C(=O)c2cccc(NC(=O)Nc3cccc4ccccc34)c2O[C@H]1CN(C)S(=O)(=O)c1cccs1 | -2.28% (inactive) |  |
| C[C@@H]1CN([C@@H](C)CO)C(=O)c2cccc(NS(=O)(=O)c3ccccc3)c2O[C@H]1CN(C)Cc1ccc(C(F)(F)F)cc1 | -9.86% (inactive) |  |
| COc1ccc(S(=O)(=O)N(C)C[C@@H]2Oc3c(NC(=O)C4CCCCC4)cccc3C(=O)N([C@@H](C)CO)C[C@H]2C)cc1 | -8.99% (inactive) |  |
| C[C@@H]1CN([C@@H](C)CO)C(=O)c2cccc(NC(=O)Nc3cccc4ccccc34)c2O[C@H]1CN(C)CC1CC1 | -29.1% (inactive) |  |
| COc1ccc(NC(=O)N(C)C[C@@H]2Oc3c(NC(=O)Nc4cccc5ccccc45)cccc3C(=O)N([C@@H](C)CO)C[C@H]2C)cc1 | -28.7% (inactive) |  |
| COc1ccc(S(=O)(=O)N(C)C[C@@H]2Oc3c(cccc3N(C)C)C(=O)N([C@@H](C)CO)C[C@H]2C)cc1 |  | protection from cytokine death ([1]; at 23.5 µM (top of the series)): -5.24% (inactive) |
| COc1ccc(S(=O)(=O)N(C)C[C@@H]2Oc3c(NS(=O)(=O)c4ccc(F)cc4)cccc3C(=O)N([C@@H](C)CO)C[C@H]2C)cc1 | 8.48% (inactive) |  |
| COc1ccc(S(=O)(=O)N(C)C[C@@H]2Oc3c(NS(=O)(=O)c4ccccc4)cccc3C(=O)N([C@@H](C)CO)C[C@H]2C)cc1 | 4.09% (inactive) |  |
| C[C@@H]1CN([C@@H](C)CO)C(=O)c2cccc(NC(=O)Nc3cccc4ccccc34)c2O[C@H]1CN(C)C(=O)Nc1ccc(C(F)(F)F)cc1 |  | protection from cytokine death ([1]; at 23.5 µM (top of the series)): -33.2% (inactive) |
| C[C@@H]1CN([C@@H](C)CO)C(=O)c2cccc(NC(=O)Nc3cccc4ccccc34)c2O[C@H]1CN(C)C(=O)Nc1ccccc1 |  | protection from cytokine death ([1]; at 23.5 µM (top of the series)): -1.63% (inactive) |
| COc1ccc(S(=O)(=O)N(C)C[C@@H]2Oc3c(NC(=O)Nc4cccc5ccccc45)cccc3C(=O)N([C@H](C)CO)C[C@@H]2C)cc1 | 13.8% (inactive) |  |
| C[C@@H]1CN([C@@H](C)CO)C(=O)c2cccc(NC(=O)Nc3cccc4ccccc34)c2O[C@H]1CN(C)C(=O)NC1CCCCC1 | -35.9% (inactive) |  |
| COc1ccc(S(=O)(=O)N(C)C[C@@H]2Oc3c(NS(=O)(=O)c4cn(C)cn4)cccc3C(=O)N([C@@H](C)CO)C[C@H]2C)cc1 | -12.2% (inactive) |  |
| C[C@@H]1CN([C@@H](C)CO)C(=O)c2cccc(NC(=O)Nc3cccc4ccccc34)c2O[C@H]1CN(C)C(=O)Nc1ccc2c(c1)OCO2 | -28.7% (inactive) |  |

| Structure (SMILES) | protection from cytokine death ([1]; at 26 µM (top of the series)) | also measured |
| --- | --- | --- |
| Cc1ccc(S(=O)(=O)N(C)C[C@@H]2Oc3c(NC(=O)Nc4cccc5ccccc45)cccc3C(=O)N([C@H](C)CO)C[C@H]2C)cc1 |  | AC50 [2]: > 23.5 µM (inactive) |
| COc1ccc(S(=O)(=O)N(C)C[C@@H]2Oc3c(NC(=O)Nc4cccc5ccccc45)cccc3C(=O)N([C@@H](C)CO)C[C@H]2C)cc1OC | 34.5% (inactive) |  |
| COc1ccccc1S(=O)(=O)N(C)C[C@@H]1Oc2c(NC(=O)Nc3cccc4ccccc34)cccc2C(=O)N([C@@H](C)CO)C[C@H]1C | -1.88% (inactive) |  |
| Cc1ccc(S(=O)(=O)N(C)C[C@H]2Oc3c(NC(=O)Nc4cccc5ccccc45)cccc3C(=O)N([C@@H](C)CO)C[C@@H]2C)cc1 | -9.39% (inactive) |  |
| COc1ccc(S(=O)(=O)N(C)C[C@@H]2Oc3c(NC(=O)Nc4ccc5c(c4)OCO5)cccc3C(=O)N([C@@H](C)CO)C[C@H]2C)cc1 | 9.8% (inactive) |  |
| C[C@@H]1CN([C@@H](C)CO)C(=O)c2cccc(NC(=O)Nc3cccc4ccccc34)c2O[C@H]1CN(C)S(=O)(=O)c1ccc2c(c1)OCCCO2 | 25.8% (inactive) |  |
| N#Cc1ccc2cc(Br)c(C(F)(F)P(=O)(O)O)cc2c1 | -34.9% (inactive) |  |
| COc1ccc(S(=O)(=O)N(C)C[C@@H]2Oc3c(NC(=O)c4cccc5ccccc45)cccc3C(=O)N([C@@H](C)CO)C[C@H]2C)cc1 | 1.13% (inactive) |  |
| COc1ccc(S(=O)(=O)N(C)C[C@@H]2Oc3ccc(NC(=O)Nc4cccc5ccccc45)cc3C(=O)N([C@@H](C)CO)C[C@H]2C)cc1 | -13.2% (inactive) |  |
| C[C@@H]1CN([C@@H](C)CO)C(=O)c2cccc(NC(=O)Nc3cccc4ccccc34)c2O[C@H]1CN(C)C(=O)Nc1ccc(F)cc1 | -27.4% (inactive) |  |
| C[C@@H]1CN([C@@H](C)CO)C(=O)c2cccc(NC(=O)Nc3cccc4ccccc34)c2O[C@H]1CN(C)S(=O)(=O)c1ccccc1F | -7.82% (inactive) |  |
| COc1ccc(S(=O)(=O)N(C)C[C@@H]2Oc3c(NC(=O)NC4CCCCC4)cccc3C(=O)N([C@@H](C)CO)C[C@H]2C)cc1 | 7.69% (inactive) |  |
| C[C@@H]1CN([C@@H](C)CO)C(=O)c2cccc(NC(=O)Nc3cccc4ccccc34)c2O[C@H]1CN(C)S(=O)(=O)c1ccccc1 | 16.5% (inactive) |  |
| COc1ccc(S(=O)(=O)N(C)C[C@@H]2Oc3c(NC(=O)Nc4c(C)noc4C)cccc3C(=O)N([C@@H](C)CO)C[C@H]2C)cc1 | -2.07% (inactive) |  |
| COc1ccc(NC(=O)Nc2cccc3c2O[C@@H](CN(C)S(=O)(=O)c2ccc(OC)cc2)[C@H](C)CN([C@@H](C)CO)C3=O)cc1 | 13.4% (inactive) |  |
| COc1ccc(S(=O)(=O)N(C)C[C@@H]2Oc3c(NC(=O)c4ccc(-c5nccs5)cc4)cccc3C(=O)N([C@@H](C)CO)C[C@H]2C)cc1 | 12.6% (inactive) |  |
| C[C@H]1CN([C@@H](C)CO)C(=O)c2cccc(NC(=O)NC3CCCCC3)c2O[C@@H]1CN(C)S(C)(=O)=O | -7.31% (inactive) |  |
| COc1ccc(S(=O)(=O)N(C)C[C@@H]2Oc3c(NC(=O)C4CC4)cccc3C(=O)N([C@@H](C)CO)C[C@H]2C)cc1 |  | protection from cytokine death ([1]; at 23.5 µM (top of the series)): 1.51% (inactive) |
| Cc1noc(C)c1NC(=O)N(C)C[C@@H]1Oc2c(NC(=O)Nc3cccc4ccccc34)cccc2C(=O)N([C@@H](C)CO)C[C@H]1C | -14.9% (inactive) |  |
| C[C@@H]1CN([C@@H](C)CO)C(=O)c2cccc(NC(=O)Nc3cccc4ccccc34)c2O[C@H]1CN(C)S(=O)(=O)c1ccc2c(c1)oc(=O)n2C | 4.91% (inactive) |  |
| CNC[C@@H]1Oc2c(NC(=O)Nc3cccc4ccccc34)cccc2C(=O)N([C@@H](C)CO)C[C@H]1C | -5.76% (inactive) |  |
| C[C@@H]1CN([C@@H](C)CO)C(=O)c2cccc(NC(=O)Nc3cccc4ccccc34)c2O[C@H]1CN(C)S(=O)(=O)c1ccc(OC(F)(F)F)cc1 | -128% (inactive) |  |
| C[C@@H]1CN([C@@H](C)CO)C(=O)c2cccc(NC(=O)Nc3cccc4ccccc34)c2O[C@H]1CN(C)S(=O)(=O)c1cn(C)cn1 | -7.7% (inactive) |  |
| COc1ccc(S(=O)(=O)N(C)C[C@@H]2Oc3c(NS(C)(=O)=O)cccc3C(=O)N([C@@H](C)CO)C[C@H]2C)cc1 | -4.24% (inactive) |  |
| C[C@@H]1CN([C@@H](C)CO)C(=O)c2cccc(NC(=O)Nc3cccc4ccccc34)c2O[C@H]1CN(C)S(=O)(=O)c1ccc2c(c1)OCCO2 |  | AC50 [2]: 1.62 µM and 4.81 µM |
